Several values for one entry are separate records, joined by “and”; a condition that tells them apart may be missing. Equal entries are not always repeated.

The subject of experiment [1] is Mus musculus. As to the kind of experiment: Maximally tolerated dose was measured after ip administration of compound, 24 hr after tumor implantation. It counts as functional.
The test system of experiment [2] is B16. Description: In vitro cytotoxicity against murine B16 melanoma cells. The format is functional, cell-based, Mus musculus.
For experiment [3], the system named is P388. Description: Maximum increase in life span was determined against P388 leukemia at 4-5 doses of compound. The format is functional, Mus musculus.
Another experiment concerns ADJ/PC6. As to the kind of experiment: Tumor growth inhibition activity after subcutaneous transplanted tumor in ADJ-PC6 plasmacytoma cells. It counts as functional, Mus musculus.
The subject of experiment [4] is B16. Description: Percent increase in life span after transplant tumor in B16 melanoma cells. The format is functional, Mus musculus.
The subject of a further experiment is L1210. Description: Percent increase in life span after transplant tumor in L1210 leukemia. It counts as functional, Mus musculus.
For a further experiment, the system named is M5076. Description: Percent increase in life span after transplant tumor in M5076 reticulum cells. It counts as functional, Mus musculus.
Experiment [5] concerns Lewis lung carcinoma cell line. Description: Percent increase in life span after transplant tumor in Lewis lung carcinoma cells. The format is functional, Mus musculus.
Experiment [6] is described as follows: Percent increase in life span after transplant tumor in Madison lung carcinoma cells. It counts as functional, Mus musculus, M109.
In experiment [7] the test system is P388. Description: Percent increase in life span after transplant tumor in p388 leukemia cells. The format is functional, Mus musculus.
The nature of experiment [8]: Tumor growth inhibition activity after subcutaneous transplanted tumor in mammary carcinoma 16/C cells. It counts as functional, Mus musculus.
For experiment [9], the species on record is Mus musculus.

`O=[N+]([O-])[O][Ag].O=[N+]([O-])[O][Ag].c1ccc(P(CCP(c2ccccc2)c2ccccc2)c2ccccc2)cc1`: in the experiment on Mus musculus [1], the MTD worked out at 8 µM/kg.
`Cc1ccc(P(CCP(c2ccc(C)cc2)c2ccc(C)cc2)c2ccc(C)cc2)cc1` gave an IC50 in the experiment on B16 [2] (Mus musculus, B16) above 100 µM. The MTD in the experiment on Mus musculus [1] was 26 µM/kg.
In turn, `C1CCC(P(CCP(C2CCCCC2)C2CCCCC2)C2CCCCC2)CC1` registered an IC50 in the experiment on B16 [2] (Mus musculus, B16) above 100 µM. In addition, the MTD in the experiment with Mus musculus [1] was 76 µM/kg. In the experiment on P388 [3], this molecule came in with an ILSmax of 68.
In the experiment with B16 [2] (Mus musculus, B16), `c1ccc(P(CCCCCCP(c2ccccc2)c2ccccc2)c2ccccc2)cc1` showed an IC50 above 100 µM. This molecule also gave an MTD with Mus musculus [1] of 280 µM/kg.
`COc1ccccc1P(CCP(c1ccccc1OC)c1ccccc1OC)c1ccccc1OC` registered an MTD in the experiment with Mus musculus [1] of 120 µM/kg.
In the experiment on B16 [2] (Mus musculus, B16), `c1ccc([As](CC[As](c2ccccc2)c2ccccc2)c2ccccc2)cc1` displayed an IC50 above 100 µM. Also, the MTD with Mus musculus [1] amounted to 82 µM/kg.
For `c1ccc(CP(CCP(Cc2ccccc2)Cc2ccccc2)Cc2ccccc2)cc1`, the IC50 in the experiment with B16 [2] (Mus musculus, B16) is above 100 µM. Further, in the experiment on Mus musculus [1], the MTD worked out at 44 µM/kg.
On to `c1ccc(P(CCCP(c2ccccc2)c2ccccc2)c2ccccc2)cc1`, for which, in the experiment with B16 [2] (Mus musculus, B16), it took 72 µM to reach half-maximal inhibition (IC50). This molecule came in with an MTD with Mus musculus [1] of 78 µM/kg. The same molecule had an ILSmax in the experiment with P388 [3] of 75.
Regarding `CC(CP(c1ccccc1)c1ccccc1)P(c1ccccc1)c1ccccc1` (stereo not given), the IC50 in the experiment with B16 [2] (Mus musculus, B16) is 50 µM. The molecule also gave an MTD with Mus musculus [1] of 78 µM/kg. The ILSmax with P388 [3] amounted to 86.
In turn, `c1cc(P(CCP(c2ccncc2)c2ccncc2)c2ccncc2)ccn1` yielded an MTD in the experiment with Mus musculus [1] of 80 µM/kg. The molecule also had an ILSmax in the experiment with P388 [3] of 35.
In the experiment with Mus musculus [1], `FC(F)(F)c1ccc(P(CCP(c2ccc(C(F)(F)F)cc2)c2ccc(C(F)(F)F)cc2)c2ccc(C(F)(F)F)cc2)cc1` yielded an MTD of 48 µM/kg. Moreover, the ILSmax in the experiment with P388 [3] was 38.
Consider `c1ccc(P(CCP(c2ccccn2)c2ccccn2)c2ccccn2)nc1`, for which the IC50 in the experiment on B16 [2] (Mus musculus, B16) was above 100 µM. This molecule also came in with an MTD in the experiment on Mus musculus [1] of 60 µM/kg.
The molecule `C(=C/P(c1ccccc1)c1ccccc1)/P(c1ccccc1)c1ccccc1` gave an IC50 in the experiment with B16 [2] (Mus musculus, B16) of 25 µM. For the same molecule, the MTD in the experiment on Mus musculus [1] worked out at 61 µM/kg. The same molecule showed an ILSmax in the experiment with P388 [3] of 60.
Molecule `c1ccc(P(c2ccccc2)c2ccc(P(c3ccccc3)c3ccccc3)cc2)cc1` showed an IC50 in the experiment on B16 [2] (Mus musculus, B16) above 100 µM. Also, the MTD in the experiment with Mus musculus [1] is above 600 µM/kg.
In the experiment with B16 [2] (Mus musculus, B16), `Cc1cccc(P(CCP(c2cccc(C)c2)c2cccc(C)c2)c2cccc(C)c2)c1` displayed an IC50 above 100 µM. For the same molecule, the MTD with Mus musculus [1] worked out at 70 µM/kg.
Molecule `c1ccc(P(CCCCP(c2ccccc2)c2ccccc2)c2ccccc2)cc1` returned an IC50 in the experiment on B16 [2] (Mus musculus, B16) above 100 µM. Besides, the MTD with Mus musculus [1] stood at 66 µM/kg. Further, in the experiment with P388 [3], the ILSmax was determined as 45.
For `c1csc(P(CCP(c2cccs2)c2cccs2)c2cccs2)c1` the same measures were above 100 µM, 38 µM/kg and 60.
As for `C(#CP(c1ccccc1)c1ccccc1)P(c1ccccc1)c1ccccc1`, the concentration for half-maximal inhibition (IC50) with B16 [2] (Mus musculus, B16) turned out to be 23 µM. In addition, the MTD in the experiment with Mus musculus [1] was above 300 µM/kg.
`Fc1ccccc1P(CCP(c1ccccc1F)c1ccccc1F)c1ccccc1F` displayed an IC50 with B16 [2] (Mus musculus, B16) above 100 µM. Besides, the MTD in the experiment on Mus musculus [1] is 68 µM/kg. This molecule also registered an ILSmax in the experiment on P388 [3] of 45.
With `CCP(CC)CCP(CC)CC`, in the experiment with B16 [2] (Mus musculus, B16), the IC50 is above 100 µM. This molecule registered an MTD with Mus musculus [1] of 310 µM/kg.
On to `c1ccc(P(CCP(c2ccccc2)c2ccccc2)CCP(c2ccccc2)c2ccccc2)cc1`, for which the IC50 in the experiment on B16 [2] (Mus musculus, B16) is above 100 µM. Moreover, the MTD with Mus musculus [1] was 60 µM/kg. In the experiment with P388 [3], this molecule returned an ILSmax of 80.
Turning to `c1coc(P(CCP(c2ccco2)c2ccco2)c2ccco2)c1`, the IC50 in the experiment with B16 [2] (Mus musculus, B16) is above 100 µM. For the same molecule, the MTD in the experiment with Mus musculus [1] was 180 µM/kg. In addition, in the experiment with P388 [3], the ILSmax was found to be 60.
For `c1ccc(P(CCCCCP(c2ccccc2)c2ccccc2)c2ccccc2)cc1`, the IC50 in the experiment on B16 [2] (Mus musculus, B16) is above 100 µM. In addition, the MTD in the experiment on Mus musculus [1] is 18 µM/kg. Further, in the experiment on P388 [3], the ILSmax stood at 50.
Regarding `CCP(CCP(CC)c1ccccc1)c1ccccc1` (stereo not given), the IC50 with B16 [2] (Mus musculus, B16) is above 100 µM. Besides, the MTD in the experiment on Mus musculus [1] was above 300 µM/kg.
For `COc1ccc(P(CCP(c2ccc(OC)cc2)c2ccc(OC)cc2)c2ccc(OC)cc2)cc1` the same measures were 66 µM and 62 µM/kg.
`CSc1ccccc1P(CCP(c1ccccc1SC)c1ccccc1SC)c1ccccc1SC` yielded an MTD in the experiment with Mus musculus [1] of 110 µM/kg. Also, the ILSmax with P388 [3] is 51.
For the molecule `c1ccc(P(CCP(c2ccccc2)c2ccccc2)c2ccccc2)cc1`, the TGI worked out at 94% in the experiment with ADJ/PC6 and 88% in experiment [8]. For the same molecule, the increase in life span (ILS) in the experiment on B16 [4] is 38%; in the experiment with L1210, 56%; in the experiment with M5076, 74%; in experiment [5] it was 69%; in experiment [6], 50%; in the experiment on P388 [7], 107%. In addition, the IC50 in the experiment on B16 [2] (Mus musculus, B16) was determined as 50 µM; with B16 [2] (b16) it was 60 µM. Moreover, the MTD with Mus musculus [1] is 60 µM/kg and 50 µM/kg. Besides, the ILSmax with P388 [3] was 80 and 107.
Regarding `CN(C)c1ccc(P(CCP(c2ccc(N(C)C)cc2)c2ccc(N(C)C)cc2)c2ccc(N(C)C)cc2)cc1`, the MTD in the experiment with Mus musculus [1] was above 220 µM/kg.
`C(=C\P(c1ccccc1)c1ccccc1)/P(c1ccccc1)c1ccccc1` displayed an IC50 with B16 [2] (Mus musculus, B16) of 40 µM. Also, the MTD in the experiment with Mus musculus [1] stood at 320 µM/kg.
For the molecule `Fc1ccc(P(CCP(c2ccc(F)cc2)c2ccc(F)cc2)c2ccc(F)cc2)cc1`, the IC50 in the experiment on B16 [2] (Mus musculus, B16) was above 100 µM. Also, the MTD with Mus musculus [1] stood at 17 µM/kg. In the experiment on P388 [3], this molecule gave an ILSmax of 60.
Molecule `c1ccc(P(c2ccccc2)P(c2ccccc2)c2ccccc2)cc1` returned an IC50 with B16 [2] (Mus musculus, B16) above 100 µM. This molecule also came in with an MTD with Mus musculus [1] of 320 µM/kg.
The like results for `c1ccc(SCCSc2ccccc2)cc1` were, in that order, above 100 µM and 1000 µM/kg.
In turn, `c1ccc(P(CCP(CCP(c2ccccc2)c2ccccc2)CCP(c2ccccc2)c2ccccc2)c2ccccc2)cc1` displayed an IC50 in the experiment with B16 [2] (Mus musculus, B16) of 58 µM. In the experiment with Mus musculus [1], this molecule gave an MTD of 95 µM/kg. This molecule showed an ILSmax in the experiment on P388 [3] of 35.
`CC(C(C)P(c1ccccc1)c1ccccc1)P(c1ccccc1)c1ccccc1` (stereo not given) gave an IC50 with B16 [2] (Mus musculus, B16) of 50 µM. This molecule also displayed an MTD in the experiment with Mus musculus [1] of 113 µM/kg. In the experiment on P388 [3], this molecule gave an ILSmax of 73.
In the case of “4,4'-Bis-diphenylphosphanyl-biphenyl; compound with GENERIC INORGANIC NEUTRAL COMPONENT”, in the experiment filed under Mus musculus [9], the MTD was 35 µM/kg and 24 µM/kg and 30 µM/kg.
Consider `c1ccc(P(CC[As](c2ccccc2)c2ccccc2)c2ccccc2)cc1`, for which, in the experiment with B16 [2] (Mus musculus, B16), half-maximal inhibition (IC50) was put at 55 µM. In the experiment on Mus musculus [1], this molecule came in with an MTD of 89 µM/kg.
With `CSc1ccc(P(CCP(c2ccc(SC)cc2)c2ccc(SC)cc2)c2ccc(SC)cc2)cc1`, the MTD in the experiment with Mus musculus [1] is 55 µM/kg. This molecule also displayed an ILSmax in the experiment with P388 [3] of 58.
As for `O=P(CCP(=O)(c1ccccc1)c1ccccc1)(c1ccccc1)c1ccccc1`, the IC50 with B16 [2] (Mus musculus, B16) is above 100 µM. The MTD in the experiment with Mus musculus [1] was determined as 300 µM/kg.

The term IC50 denotes the concentration at which inhibition is half-maximal. Higher therefore signals lower potency. By TGI is commonly meant the reduction of tumour growth relative to the control group. As usually defined, the ILS is the gain in survival time of treated over control animals, in per cent. A high value points to a large benefit in survival.

Values taken from ChEMBL document CHEMBL1123558, “Antitumor activity of bis(diphenylphosphino)alkanes, their gold(I) coordination complexes, and related compounds” (J Med Chem, 1987).
